Results as given in US20230109839A1, “THERAPEUTIC AGENT FOR TAUOPATHIES” (SUMITOMO PHARMA CO., LTD., priority 2020, published 2023).

molecular target: T1, human Nav1.1 (Homo sapiens, UniProt P35498); assay: Amplification of Nav1.1-derived voltage-gated sodium current (Nav1.1 current), automated patch clamp (Test 1); assay type: cell-based; details: Concentration for evaluation 1 μM; HEK293 cell line stably expressing human Nav1.1
T1 construct: host or cells: HEK293
In short: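 Compound-induced change in ramp-evoked sodium current peak and AUC was expressed as 100×post/pre ratio minus 100. Recordings used automated patch clamp in voltage-clamp mode on a stable human Nav1.1 HEK293 line, including only cells above 500 pA. Compounds were delivered in extracellular fluid containing 1% DMSO.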

SMILES	Nav1.1 current amplification rate (%)
CC1CC=C(c2ccc(=O)n(CC(=O)N3CCc4c(CN5CCCCC5)cccc43)n2)CC1 (stereo not shown) [Example 282]	26
CN(CC1CC(F)(F)C1)c1cnc2cnn(CC(=O)Nc3ccn4ncnc4c3)c2n1 [Example 624]	61
CC1CC(N(C)c2cnc3cnn(CC(=O)Nc4ccn5ncnc5c4)c3n2)C1 (stereo not shown) [Example 635]	76
CN(c1cnc2cnn(CC(=O)Nc3ccc4ncnn4c3)c2n1)C1CCCC1 [Example 669]	30
COc1cc(C2=CCC(C)(C)CC2)nn(CC(=O)N2CCc3c(N4CCOCC4)cccc32)c1=O [Example 468]	275
CN(c1cnc2cnn(CC(=O)Nc3ccc4nccnc4c3)c2n1)C1CCCC1 [Example 680]	50

same assay, conditions: Concentration for evaluation 3 μM; HEK293 cell line stably expressing human Nav1.1

SMILES	Nav1.1 current amplification rate (%)
Cc1ncc(-c2cccc3c2CCN3C(=O)Cn2nc(C3=CCC(C)CC3)ccc2=O)cn1 (stereo not shown) [Example 264]	597
CC1CC=C(c2ccc(=O)n(CC(=O)N3CCc4c(C5=CCN(C)C5)cccc43)n2)CC1 (stereo not shown) [Example 267]	231

same assay, conditions: Concentration for evaluation 10 μM; HEK293 cell line stably expressing human Nav1.1

SMILES	Nav1.1 current amplification rate (%)
Cc1ccc(-c2ccc(=O)n(CC(=O)Nc3ccc4ocnc4c3)n2)s1 [Example 455]	131
COc1cnc(C2=CCN(C(=O)Cn3nc(C4=CCC(C)CC4)ccc3=O)CC2)cn1 (stereo not shown) [Example 399]	102
N#Cc1ccc(NC(=O)Cn2nc(N3CCC4(CCC4)C3)ccc2=O)cc1 [Example 34]	311
CC1CC=C(c2ccc(=O)n(CC(=O)Nc3ccc4oc(C(F)F)nc4c3)n2)CC1 (stereo not shown) [Example 243]	276
CC1CCN(c2ccc(=O)n(CC(=O)Nc3ccc(C#N)nc3)n2)CC1 [Example 51]	196
CC1CC=C(c2ccc(=O)n(CC(=O)N3CCC(c4ccccn4)CC3)n2)CC1 (stereo not shown) [Example 260]	13
CC1CC=C(c2ccc(=O)n(CC(=O)N3CCN(c4ccncc4)CC3)n2)CC1 (stereo not shown) [Example 261]	60
CC1(C)CC=C(c2ccc(=O)n(CC(=O)N3CCN(c4cncc(F)c4)CC3)n2)C1 [Example 483]	175

same assay, conditions: Concentration for evaluation 50 μM; HEK293 cell line stably expressing human Nav1.1

SMILES	Nav1.1 current amplification rate (%)
CC1CC=C(c2ccc(=O)n(CC(=O)N3CC=C(c4cccnc4)C3)n2)CC1 (stereo not shown) [Example 386]	126
N#Cc1ccc(-c2ncc3cnn(CC(=O)Nc4ccn5ncnc5c4)c3n2)s1 [Example 778]	13
CC1CCC(F)(F)CN1c1ncc2cnn(CC(=O)Nc3ccn4ncnc4c3)c2n1 (stereo not shown) [Example 793]	55
Cc1c(NC(=O)Cn2nc(C3=CCC(C)CC3)ccc2=O)ccc2ncnn12 (stereo not shown) [Example 353]	32

same assay, conditions: HEK293, Concentration for evaluation 1 μM; HEK293 cell line stably expressing human Nav1.1; read-out: Nav1.1 current amplification rate (%)

SMILES	activation at 1 µM [%]
Cc1cc(NC(=O)Cn2ncc3ncc(N(C)CC4CC4)nc32)cc2ncnn12 [Example 745]	43
O=C(Cn1ncc2ncc(N3CCC4(CCC4)CC3)nc21)N1CCN(c2cccnc2)CC1 [Example 736]	13

same assay, conditions: HEK293, Concentration for evaluation 50 μM; HEK293 cell line stably expressing human Nav1.1; read-out: Nav1.1 current amplification rate (%)

SMILES	activation at 50 µM [%]
O=C(Cn1ncc2cnc(OCCC3CC3)nc21)Nc1ccn2ncnc2c1 [Example 762, 2-[6-(2-Cyclopropylethoxy)-1H-pyrazolo[3,4-d]pyrimidin-1-yl]-N-([1,2,4]triazolo[1,5-a]pyridin-7-yl)acetamide]	37

same assay, conditions: concentration for evaluation 1 μM; HEK293 stably expressing human Nav1.1

SMILES	Nav1.1 current amplification rate (%)
N#Cc1ncc(NC(=O)Cn2ncc3cnc(N4CCC5(CC5)C(F)(F)C4)nc32)cn1 [Example 827]	29
CC1(C)CCN(c2ccc3cnn(CC(=O)Nc4ccn5ncnc5c4)c3n2)CC1 [Example 856]	50
O=C(Cn1ncc2ccc(C3=COCCC3)nc21)Nc1ccn2ccnc2c1 [Example 869]	17
CN(c1ncc2cnn(CC(=O)Nc3ccn4ncnc4c3)c2n1)C1CC2(CC2)C1 [Example 802]	111

same assay, conditions: concentration for evaluation 10 μM; HEK293 stably expressing human Nav1.1

SMILES	Nav1.1 current amplification rate (%)
CC1(C)CCN(c2ncc3cnn(CC(=O)Nc4ccc5cncnc5c4)c3n2)CC1 [Example 809]	64
